Legend:
[1] = system: multiresistant Acinetobacter baunnamii; assay: Cultures of the injury area, peripheral blood and central catheter: antibiotic sensitivity; assay type: cell-based, Acinetobacter baumannii
Protocol: Initial assessment of the patient's injuries in the operating room on 29 Jan. […] As described, the DECA immunotherapy was applied to these areas. It is interesting to note that on this occasion cultures of internal secretions and tissue fragments were performed.

[2] = system: Septicemia (Pseudomonas aeruginosa, Acinetobacter baunnamii, Proteus mirabiles); assay: Clinical case, patient J-P: septicemia with infected complex wounds; assay type: in vivo, human; settings: 6 Feb. 2011; Polymyxin B 20,000 IU/kg twice daily and other antimicrobials
Text: The patient was admitted to the ICU of Hospital Alemao Oswaldo Cruz for debridement and application of treatment with DECA which took the following form: • Application of 1.8 cc of the DECA composition divided into 2 applications of 0.9 cc per composition along the 10 main lymphatic territories. • 3-4 cm distance margin between applications to facilitate the reading of the evolution of the treatment at an interval of 4±1 days. These applications were made together with the surgical debridement (on average 1 to 2 times per week). • Administration of 36 extra perilesional compositions of 1.8 cc of each DECA in two applications of 0.9 cc per set, skirting the following open injuries without possibility of suture: the left inguinal region, the lateral side of the left thigh, the anterior left thigh and medial aspect of the left thigh, instep region and left lateral malleolus of the right leg. • Application of recombinant human interleukin-2 at low doses, at a receptor saturation level with a concentration of 1 to 2 million units per m^2 of the patient's body surface located in the region of the extra DECA applications. […]

For `C[C@H]1[C@H](NC(=O)/C(=N\OC(C)(C)C(=O)O)c2csc(N)n2)C(=O)N1S(=O)(=O)O` [Aztreonam], the “Pre-immunotherapy cultures (29/01/2011): sensitivity of the isolate” value (shortened to “Pre-immunotherapy cultures”) ([1]; Central catheter) was “baumannii only sensitive” and the “Pre-immunotherapy cultures” value ([1]; Injury in the left thigh) was “baumannii only sensitive”.
With Polymyxin B the toxicity [2] was “acute renal failure with oliguria”, the “Pre-immunotherapy cultures” value ([1]; Central catheter) was “baumannii only sensitive” and the “Pre-immunotherapy cultures” value ([1]; Injury in the left thigh) was “baumannii only sensitive”. The “Pre-immunotherapy cultures” value ([1]; Peripheric blood) was “baumannii only sensitive” and the “sensitivity of the isolate” value ([1]; isolates of left thigh wound, peripheral blood and central catheter, result of 1 Feb. 2011) was “sensitive”.

— US9566330B2, “Immunogenic composition for immune system modulation and use thereof, method for treating and preventing diseases, method for inducing cell regeneration and method for restoring immune response” (priority 2011, dated 2017)
